# Values quoted from earlier work as cited in patent US8653307B2 (California Institute of Technology, priority 2011, dated 2014).
# What was measured:
# PI3Kα = PI3Kα (Homo sapiens, UniProt P42336)
# [1] = test system: MDA-468 breast cancer line; settings: read-out: IC50 (cytotoxicity)
# LoVo (human colon) cells = settings: read-out: IC50 (cytotoxicity)
# CaCo (human colon) = CaCo (human colon) cells; read-out: IC50 (cytotoxicity)
# PI3Kα, sequence (P42336 whole entry): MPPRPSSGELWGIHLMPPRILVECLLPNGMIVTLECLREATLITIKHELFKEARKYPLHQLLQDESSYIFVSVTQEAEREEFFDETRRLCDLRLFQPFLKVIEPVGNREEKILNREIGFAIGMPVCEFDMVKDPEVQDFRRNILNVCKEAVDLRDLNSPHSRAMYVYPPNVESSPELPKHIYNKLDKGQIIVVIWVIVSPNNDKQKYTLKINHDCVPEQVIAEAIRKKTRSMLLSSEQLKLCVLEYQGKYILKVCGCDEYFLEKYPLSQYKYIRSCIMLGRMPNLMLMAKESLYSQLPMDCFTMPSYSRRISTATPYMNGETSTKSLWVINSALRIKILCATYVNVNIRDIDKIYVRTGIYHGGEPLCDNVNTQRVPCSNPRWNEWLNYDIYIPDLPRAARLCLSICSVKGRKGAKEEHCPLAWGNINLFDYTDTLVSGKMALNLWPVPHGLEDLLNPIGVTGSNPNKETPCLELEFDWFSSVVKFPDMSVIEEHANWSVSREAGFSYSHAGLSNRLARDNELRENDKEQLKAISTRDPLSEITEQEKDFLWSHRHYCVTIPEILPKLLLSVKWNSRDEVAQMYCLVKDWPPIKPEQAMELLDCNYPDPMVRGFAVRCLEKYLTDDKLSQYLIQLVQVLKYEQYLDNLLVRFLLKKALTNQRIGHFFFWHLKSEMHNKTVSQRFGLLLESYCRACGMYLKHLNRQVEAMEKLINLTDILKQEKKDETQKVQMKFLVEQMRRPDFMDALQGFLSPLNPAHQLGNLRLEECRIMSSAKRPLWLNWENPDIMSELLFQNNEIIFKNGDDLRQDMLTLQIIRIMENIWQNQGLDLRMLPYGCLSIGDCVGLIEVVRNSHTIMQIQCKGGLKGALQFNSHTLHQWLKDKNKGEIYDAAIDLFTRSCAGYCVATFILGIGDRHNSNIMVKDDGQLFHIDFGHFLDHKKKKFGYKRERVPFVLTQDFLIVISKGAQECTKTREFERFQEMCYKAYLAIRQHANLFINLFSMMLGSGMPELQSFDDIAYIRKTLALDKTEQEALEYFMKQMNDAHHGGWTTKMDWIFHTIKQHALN
# PI3Kα, sequence (P27986 whole entry partner): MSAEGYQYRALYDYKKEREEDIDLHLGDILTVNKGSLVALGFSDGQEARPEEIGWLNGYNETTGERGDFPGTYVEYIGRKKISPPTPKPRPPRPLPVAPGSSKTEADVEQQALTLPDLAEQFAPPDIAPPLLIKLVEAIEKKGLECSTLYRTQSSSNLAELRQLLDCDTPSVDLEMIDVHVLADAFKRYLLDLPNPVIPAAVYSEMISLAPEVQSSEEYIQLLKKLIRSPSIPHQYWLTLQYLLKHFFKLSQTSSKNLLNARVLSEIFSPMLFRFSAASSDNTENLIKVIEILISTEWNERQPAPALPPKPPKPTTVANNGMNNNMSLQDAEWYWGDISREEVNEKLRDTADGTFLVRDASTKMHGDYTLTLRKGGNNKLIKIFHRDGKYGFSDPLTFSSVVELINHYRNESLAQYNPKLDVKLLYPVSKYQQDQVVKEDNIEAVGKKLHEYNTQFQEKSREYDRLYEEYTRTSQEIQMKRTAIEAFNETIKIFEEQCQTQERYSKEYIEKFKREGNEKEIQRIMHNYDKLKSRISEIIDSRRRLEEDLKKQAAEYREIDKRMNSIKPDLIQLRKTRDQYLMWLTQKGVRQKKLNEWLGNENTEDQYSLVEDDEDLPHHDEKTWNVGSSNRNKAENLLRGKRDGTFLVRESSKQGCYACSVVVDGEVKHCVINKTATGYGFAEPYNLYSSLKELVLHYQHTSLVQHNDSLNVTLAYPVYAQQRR
Compound,selectivity among PI3Ks / related enzymes (in words) (PI3Kα),IC50 [1],IC50 (LoVo (human colon) cells),IC50 (CaCo (human colon))
O=c1cc(N2CCOCC2)oc2c(-c3ccccc3)cccc12 [LY294002],somewhat selective,,,
liphagal,,1580 nM,580 nM,670 nM
